{"source": "patent US6620828B2", "about": "“Thiazole compounds and pharmaceutical compositions for inhibiting protein kinases and methods for their use” (Agouron Pharmaceuticals, Inc., priority 1999, dated 2003)", "data": [{"test_system": "human umbilical vein endothelial cells (HUVEC)", "assay": "HUVEC proliferation assay", "type": "cell-based", "conditions": "Homo sapiens, HUVEC, Table I screening results; 150 nM; crude combinatorial amide library", "experimental": "(§1) HUVEC Proliferation Assay\n(§2) This assay determines the ability of a test compound to inhibit the growth factor-stimulated proliferation of human umbilical vein endothelial cells (“HUVEC”). HUVEC cells (passage 3-4, Clonetics, Corp.) were thawed into EGM2 culture medium (Clonetics Corp) in T75 flasks. Fresh EGM2 medium was added to the flasks 24 hours later. Four or five days later, cells were exposed to another culture medium (F12K medium supplemented with 10% fetal bovine serum (FBS), 60 μg/ml endothelial cell growth supplement (ECGS), and 0.1 mg/ml heparin). Exponentially-growing HUVEC cells were used in experiments thereafter. Ten to twelve thousand HUVEC cells were plated in 96-well dishes in 100 μl of rich, culture medium (described above). The cells were allowed to attach for 24 hours in this medium. The medium was then removed by aspiration and 105 μl of starvation media (F12K+1% FBS) was added to each well. After 24 hours, 15 μl of test agent dissolved in 1% DMSO in starvation medium or this vehicle alone was added into each treatment well; the final DMSO concentration was 0.1%. One hour later, 30 μl of VEGF (30 ng/ml) in starvation media was added to all wells except those containing untreated controls; the final VEGF concentration was 6 ng/ml. Cellular proliferation was quantified 72 hours later by MTT dye reduction, at which time cells were exposed for 4 hours MTT (Promega Corp.). Dye reduction was stopped by addition of a stop solution (Promega Corp.) and absorbance at 595 λ was determined on a 96-well spectrophotometer plate reader.\n(§3) IC50 values were calculated by curve-fitting the response of A^595 to various concentrations of the test agent; typically, seven concentrations separated by 0.5 log were employed, with triplicate wells at each concentration. For screening compound library plates, one or two concentrations (one well per concentration) were employed, and the % inhibition was calculated by the following formula:\n(§4) % inhibition=(control−test) divided by (control−starvation) […]\n(§5) control=A^595 when VEGF is present without test agent test=A^595 when VEGF is present with test agent starvation=A^595 when VEGF and test agent are both absent.", "units": {"inhibition at 0.15 µM": "%"}, "values": [{"smiles": "CCOC(=O)/C=C/C(=O)Nc1cccc(-c2csc(-c3sc(Nc4cc(OC)c(OC)c(OC)c4)nc3N)n2)c1", "inhibition at 0.15 µM": 27}, {"smiles": "COc1cc(Nc2nc(N)c(-c3nc(-c4cccc(NC(=O)CCc5ccc(C)cc5)c4)cs3)s2)cc(OC)c1OC", "inhibition at 0.15 µM": 25}, {"smiles": "COc1cc(Nc2nc(N)c(-c3nc(-c4cccc(NC(=O)C5CCCCCC5)c4)cs3)s2)cc(OC)c1OC", "inhibition at 0.15 µM": 13}, {"smiles": "COc1cc(Nc2nc(N)c(-c3nc(-c4cccc(NC(=O)C5(c6ccccc6)CC5)c4)cs3)s2)cc(OC)c1OC", "inhibition at 0.15 µM": 11}, {"smiles": "COc1cc(Nc2nc(N)c(-c3nc(-c4cccc(NC(=O)c5cnc(Cl)c(Cl)c5)c4)cs3)s2)cc(OC)c1OC", "inhibition at 0.15 µM": 20}, {"smiles": "COc1cc(Nc2nc(N)c(-c3nc(-c4cccc(NC(=O)CCOc5ccccc5)c4)cs3)s2)cc(OC)c1OC", "inhibition at 0.15 µM": 11}, {"smiles": "COc1cc(Nc2nc(N)c(-c3nc(-c4cccc(NC(=O)COc5ccccc5)c4)cs3)s2)cc(OC)c1OC", "note": "[drawing 868]", "inhibition at 0.15 µM": 10}, {"smiles": "COc1ccc2oc(C(=O)Nc3cccc(-c4csc(-c5sc(Nc6cc(OC)c(OC)c(OC)c6)nc5N)n4)c3)cc2c1", "inhibition at 0.15 µM": 7}, {"smiles": "COc1cc(Nc2nc(N)c(-c3nc(-c4cccc(NC(=O)c5ccccc5CCc5ccccc5)c4)cs3)s2)cc(OC)c1OC", "inhibition at 0.15 µM": -14}, {"smiles": "COc1cc(Nc2nc(N)c(-c3nc(-c4cccc(NC(=O)c5cc6ccccc6[nH]5)c4)cs3)s2)cc(OC)c1OC", "inhibition at 0.15 µM": 4}, {"smiles": "COc1cc(OC)cc(C(=O)Nc2cccc(-c3csc(-c4sc(Nc5cc(OC)c(OC)c(OC)c5)nc4N)n3)c2)c1", "inhibition at 0.15 µM": 51}, {"smiles": "COc1cc(Nc2nc(N)c(-c3nc(-c4cccc(NC(=O)CCC(C)C)c4)cs3)s2)cc(OC)c1OC", "inhibition at 0.15 µM": 39}, {"smiles": "COc1cc(Nc2nc(N)c(-c3nc(-c4cccc(NC(=O)c5c(-c6ccccc6)noc5C)c4)cs3)s2)cc(OC)c1OC", "inhibition at 0.15 µM": 5}]}, {"test_system": "human umbilical vein endothelial cells (HUVEC)", "assay": "HUVEC proliferation assay", "type": "cell-based", "conditions": "Homo sapiens, HUVEC, Table II screening results; 1 nM; crude combinatorial amide library", "experimental": "as §1, §2, §3, §4, §5", "units": {"inhibition at 0.001 µM": "%"}, "values": [{"smiles": "CNC(=O)Nc1nc(N)c(-c2nc(-c3cccc(NC(=O)c4cc(C)n[nH]4)c3)cs2)s1", "inhibition at 0.001 µM": 32}, {"smiles": "CNC(=O)Nc1nc(N)c(-c2nc(-c3cccc(NC(=O)[C@@]45C[C@@H]6C[C@@H]4CC6(C)C5)c3)cs2)s1", "inhibition at 0.001 µM": -20}, {"smiles": "CNC(=O)Nc1nc(N)c(-c2nc(-c3cccc(NC(=O)C4CC5C=CC4CC5)c3)cs2)s1", "note": "(stereo not drawn)", "inhibition at 0.001 µM": 54}, {"smiles": "CNC(=O)Nc1nc(N)c(-c2nc(-c3cccc(NC(=O)Cc4cn(C)cn4)c3)cs2)s1", "inhibition at 0.001 µM": 34}]}, {"test_system": "human umbilical vein endothelial cells (HUVEC)", "assay": "HUVEC proliferation assay", "type": "cell-based", "conditions": "Homo sapiens, HUVEC, Table II screening results; 10 nM; crude combinatorial amide library; read-out: % inhibition @ 10 nM", "experimental": "as §1, §2, §3, §4, §5", "units": {"inhibition at 0.01 µM": "%"}, "values": [{"smiles": "CNC(=O)Nc1nc(N)c(-c2nc(-c3cccc(NC(=O)c4cc(C)n[nH]4)c3)cs2)s1", "inhibition at 0.01 µM": -22}, {"smiles": "CNC(=O)Nc1nc(N)c(-c2nc(-c3cccc(NC(=O)[C@@]45C[C@@H]6C[C@@H]4CC6(C)C5)c3)cs2)s1", "inhibition at 0.01 µM": 2}, {"smiles": "CNC(=O)Nc1nc(N)c(-c2nc(-c3cccc(NC(=O)C4CC5C=CC4CC5)c3)cs2)s1", "note": "(stereo not drawn)", "inhibition at 0.01 µM": 45}, {"smiles": "CNC(=O)Nc1nc(N)c(-c2nc(-c3cccc(NC(=O)Cc4cn(C)cn4)c3)cs2)s1", "inhibition at 0.01 µM": 42}]}, {"test_system": "human umbilical vein endothelial cells (HUVEC)", "assay": "HUVEC proliferation assay", "type": "cell-based", "conditions": "Homo sapiens, HUVEC, table following Table II (untitled); 1 nM; crude combinatorial library", "experimental": "as §1, §2, §3, §4, §5", "units": {"inhibition at 0.001 µM": "%"}, "values": [{"smiles": "COc1cc(Nc2nc(N)c(-c3nc(-c4cc(NC(=O)c5cc(F)ccc5C)ccc4C)no3)s2)cc(OC)c1OC", "inhibition at 0.001 µM": 29}, {"smiles": "COc1cc(Nc2nc(N)c(-c3nc(-c4cc(NC(=O)CC5=CCCCC5)ccc4C)no3)s2)cc(OC)c1OC", "inhibition at 0.001 µM": -12}, {"smiles": "C/C=C(\\C)C(=O)Nc1ccc(C)c(-c2noc(-c3sc(Nc4cc(OC)c(OC)c(OC)c4)nc3N)n2)c1", "inhibition at 0.001 µM": 60}, {"smiles": "COc1cc(Nc2nc(N)c(-c3nc(-c4cc(NC(=O)[C@H](C)C(C)C)ccc4C)no3)s2)cc(OC)c1OC", "inhibition at 0.001 µM": -8}, {"smiles": "COc1cc(Nc2nc(N)c(-c3nc(-c4cc(NC(=O)C(=O)C5=CCCCC5)ccc4C)no3)s2)cc(OC)c1OC", "inhibition at 0.001 µM": -36}, {"smiles": "COc1cc(Nc2nc(N)c(-c3nc(-c4cc(NC(=O)Cc5cc(F)cc(F)c5)ccc4C)no3)s2)cc(OC)c1OC", "inhibition at 0.001 µM": 4}, {"smiles": "COc1cc(Nc2nc(N)c(-c3nc(-c4cc(NC(=O)Cc5sc(S)nc5C)ccc4C)no3)s2)cc(OC)c1OC", "inhibition at 0.001 µM": -17}]}, {"test_system": "human umbilical vein endothelial cells (HUVEC)", "assay": "HUVEC proliferation assay", "type": "cell-based", "conditions": "Homo sapiens, HUVEC, table following Table II (untitled); 10 nM; crude combinatorial library; read-out: % inhibition @ 10 nM", "experimental": "as §1, §2, §3, §4, §5", "units": {"inhibition at 0.01 µM": "%"}, "values": [{"smiles": "COc1cc(Nc2nc(N)c(-c3nc(-c4cc(NC(=O)c5cc(F)ccc5C)ccc4C)no3)s2)cc(OC)c1OC", "inhibition at 0.01 µM": 64}, {"smiles": "COc1cc(Nc2nc(N)c(-c3nc(-c4cc(NC(=O)CC5=CCCCC5)ccc4C)no3)s2)cc(OC)c1OC", "inhibition at 0.01 µM": 43}, {"smiles": "C/C=C(\\C)C(=O)Nc1ccc(C)c(-c2noc(-c3sc(Nc4cc(OC)c(OC)c(OC)c4)nc3N)n2)c1", "inhibition at 0.01 µM": 123}, {"smiles": "COc1cc(Nc2nc(N)c(-c3nc(-c4cc(NC(=O)[C@H](C)C(C)C)ccc4C)no3)s2)cc(OC)c1OC", "inhibition at 0.01 µM": -18}, {"smiles": "COc1cc(Nc2nc(N)c(-c3nc(-c4cc(NC(=O)C(=O)C5=CCCCC5)ccc4C)no3)s2)cc(OC)c1OC", "inhibition at 0.01 µM": 11}, {"smiles": "COc1cc(Nc2nc(N)c(-c3nc(-c4cc(NC(=O)Cc5cc(F)cc(F)c5)ccc4C)no3)s2)cc(OC)c1OC", "inhibition at 0.01 µM": 67}, {"smiles": "COc1cc(Nc2nc(N)c(-c3nc(-c4cc(NC(=O)Cc5sc(S)nc5C)ccc4C)no3)s2)cc(OC)c1OC", "inhibition at 0.01 µM": 1}]}, {"test_system": "human umbilical vein endothelial cells (HUVEC)", "assay": "HUVEC proliferation assay", "type": "cell-based", "conditions": "Table I screening results; 150 nM; crude combinatorial amide library; 0.15 µM", "experimental": "as §1, §2, §3, §4, §5", "units": {"% inhibition @ 150 nM": "%"}, "values": [{"smiles": "COc1cc(Nc2nc(N)c(-c3nc(-c4cccc(NC(=O)c5ccc(C(C)C)cc5)c4)cs3)s2)cc(OC)c1OC", "note": "[drawing 1003]", "% inhibition @ 150 nM": 17}]}]}
